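Grown in 96-well plates, cells were treated for 48 hours with each compound at five concentrations. Insufficient inhibition: endpoint recorded as highest concentration tested. Here, GI50 denotes the concentration required for 50% inhibition of growth. TGI: concentration producing complete growth inhibition.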
Key:
Experiment in all cases: growth of human tumour cells (NCI), 48 h
[1] = tested on: SK-OV-3 ovarian
[2] = tested on: DU-145 prostate
[3] = tested on: NCI/ADR-RES ovarian
[4] = tested on: HCC-2998 colon
[5] = tested on: SK-MEL-2 melanoma
[6] = tested on: UACC-62 melanoma
[7] = tested on: A498 renal
[8] = tested on: MALME-3M melanoma
[9] = tested on: SK-MEL-28 melanoma
[10] = tested on: ACHN renal
[11] = tested on: HT29 colon
[12] = tested on: COLO 205 colon
[13] = tested on: SW-620 colon
[14] = tested on: EKVX NSCLC
[15] = tested on: MDA-N
[16] = tested on: NCI-H23 lung
[17] = tested on: A549 NSCLC
[18] = tested on: HS 578T breast
[19] = tested on: IGROV1 ovarian
[20] = tested on: SF-268 CNS
[21] = tested on: SNB-75 CNS
[22] = tested on: SF-539 CNS
[23] = tested on: UACC-257 melanoma
[24] = tested on: SN12C renal
[25] = tested on: 786-0 renal
[26] = tested on: HCT-116 colon
[27] = tested on: PC-3 prostate
[28] = tested on: HCT-15 colon
[29] = tested on: M14 melanoma
[30] = tested on: OVCAR-4 ovarian
[31] = tested on: T-47D breast
[32] = tested on: RXF 393 renal
[33] = tested on: NCI-H226 lung
[34] = tested on: KM12 colon
[35] = tested on: TK-10 renal
[36] = tested on: MDA-MB-435
[37] = tested on: MDA-MB-231 breast
[38] = tested on: NCI-H460 lung
[39] = tested on: OVCAR-5 ovarian
[40] = tested on: MCF7 breast
[41] = tested on: K-562 leukemia
[42] = tested on: OVCAR-3 ovarian
[43] = tested on: OVCAR-8 ovarian
[44] = tested on: CAKI-1 renal
[45] = tested on: LOX IMVI melanoma
[46] = tested on: SK-MEL-5 melanoma
[47] = tested on: SR leukemia
[48] = tested on: HOP-62 NSCLC
[49] = tested on: U251 CNS
[50] = tested on: NCI-H522 lung
[51] = tested on: HL-60(TB) leukemia
[52] = tested on: RPMI-8226 leukemia
[53] = tested on: SF-295 CNS
[54] = tested on: MOLT-4 leukemia
[55] = tested on: UO-31 renal
[56] = tested on: HOP-92 NSCLC
[57] = tested on: CCRF-CEM leukemia
[58] = tested on: SNB-19 CNS
[59] = tested on: BT-549 breast

Molecule `CCCCCCCCCCCCCCCC1(OC)C[N+](C)(C)CCO1` (stereo not given) has a TGI [1] of 21.8 µM, a TGI [2] of 5.9 µM and a TGI [3] of 41.7 µM. It also gave a TGI [4] of 6.18 µM, a TGI [5] of 7.63 µM and a TGI [6] of 7.64 µM. It also gave a TGI [7] of 67.5 µM, a TGI [8] of 4.7 µM and a TGI [9] of 6.33 µM. The TGI [10] was 5.8 µM, the TGI [11] was 2.56 µM and the TGI [12] was 2.58 µM. The TGI [13] was 26.4 µM, the TGI [14] was 5.76 µM and the TGI [15] was 4.99 µM. It also gave a TGI [16] of 2.81 µM, a TGI [17] of 3.45 µM and a TGI [18] of 7.22 µM. For the same molecule, the TGI [19] was 3.16 µM, the TGI [20] was 5.04 µM and the TGI [21] was 0.445 µM. For the same molecule, the TGI [22] was 3.49 µM, the TGI [23] was 4.85 µM and the TGI [24] was 3.94 µM. It also gave a TGI [25] of 2.05 µM, a TGI [26] of 3.38 µM and a TGI [27] of 6.21 µM. The TGI [28] was 28.9 µM, the TGI [29] was 3.13 µM and the TGI [30] was 5.96 µM. The TGI [31] was 33.6 µM, the TGI [32] was 2.39 µM and the TGI [33] was 3.6 µM. The TGI [34] was 1.96 µM, the TGI [35] was 5.33 µM and the TGI [36] was 3.63 µM. For the same molecule, the TGI [37] was 4.8 µM, the TGI [38] was 5.57 µM and the TGI [39] was 6.08 µM. It also gave a TGI [40] of 0.901 µM.
Work on `CC(C)C(NC(=O)C(Cc1ccccc1)NC(=O)[C@H]1CCC[C@H]1NC(=O)C(Cc1ccc(OC(C)(C)C)cc1)NC(=O)OC(C)(C)C)C(N)=O` (stereo not given in full) yielded a TGI [1] of 57.6 µM, a TGI [41] of 44.4 µM and a TGI [2] greater than 100 µM. It also gave a TGI [3] greater than 100 µM, a TGI [4] of 30.5 µM and a TGI [5] of 41.6 µM. For the same molecule, the TGI [42] was 69.3 µM, the TGI [6] was 40.5 µM and the TGI [43] was 34.9 µM. It also gave a TGI [44] greater than 100000 nM, a TGI [7] of 27.6 µM and a TGI [45] of 30.3 µM. For the same molecule, the TGI [9] was 40 µM, the TGI [10] was greater than 100 µM and the TGI [11] was 53.3 µM. The TGI [12] was 36.9 µM, the TGI [13] was 51.3 µM and the TGI [14] was greater than 100 µM. The TGI [46] was 21.5 µM, the TGI [15] was 35 µM and the TGI [47] was greater than 100 µM. It also gave a TGI [16] of 35.7 µM, a TGI [17] of 45.5 µM and a TGI [48] of 32.5 µM. It also gave a TGI [19] greater than 100 µM, a TGI [20] of 70 µM and a TGI [21] of 29.2 µM. It also gave a TGI [22] of 33.8 µM, a TGI [24] of 35.2 µM and a TGI [25] greater than 100 µM. For the same molecule, the TGI [26] was 32.1 µM, the TGI [27] was 54 µM and the TGI [49] was 28.3 µM. For the same molecule, the TGI [50] was 30.7 µM, the TGI [28] was greater than 100 µM and the TGI [51] was greater than 100 µM. For the same molecule, the TGI [52] was greater than 100000 nM, the TGI [29] was 33.6 µM and the TGI [30] was 65.4 µM. The TGI [31] was 46.9 µM, the TGI [53] was 34.5 µM and the TGI [54] was 46.5 µM. The TGI [32] was greater than 100 µM, the TGI [33] was 37.8 µM and the TGI [55] was greater than 100 µM. The TGI [34] was 41.8 µM, the TGI [56] was 48.9 µM and the TGI [35] was 72 µM. It also gave a TGI [57] of 39.4 µM, a TGI [36] of 34.3 µM and a TGI [37] of 49.5 µM. It also gave a TGI [38] of 38.8 µM, a TGI [39] of 36.2 µM and a TGI [40] of 35.9 µM.
With `O=C(Nc1cccc(C(F)(F)F)c1)c1cc2ccccc2cc1O` the GI50 [1] was 1550 nM, the TGI [1] was 6.32 µM and the GI50 [41] was 487 nM. It also gave a TGI [41] greater than 100 µM, a GI50 [2] of 2220 nM and a TGI [2] greater than 100 µM. It also gave a GI50 [3] of 2170 nM, a TGI [3] of 9.34 µM and a GI50 [4] of 3.35 µM. It also gave a TGI [4] of 28.8 µM, a GI50 [5] of 2700 nM and a TGI [5] of 18.7 µM. For the same molecule, the GI50 [42] was 783 nM, the TGI [42] was 6.1 µM and the GI50 [6] was 835 nM. For the same molecule, the TGI [6] was greater than 46.1 µM, the GI50 [58] was 1750 nM and the TGI [58] was greater than 100 µM. It also gave a GI50 [43] of 3.7 µM, a TGI [43] greater than 31.3 µM and a GI50 [44] of 345 nM. It also gave a TGI [44] of 1220 nM, a GI50 [7] of 919 nM and a TGI [7] of 7.4 µM. For the same molecule, the GI50 [8] was 1150 nM, the TGI [8] was 6.74 µM and the GI50 [45] was 1920 nM. The TGI [45] was 14.3 µM, the GI50 [9] was 3.05 µM and the TGI [9] was greater than 100 µM. For the same molecule, the GI50 [10] was 1780 nM, the TGI [10] was greater than 30.4 µM and the GI50 [11] was 3.33 µM. For the same molecule, the TGI [11] was greater than 55.5 µM, the GI50 [12] was 1900 nM and the TGI [12] was 4.6 µM. It also gave a GI50 [13] of 2510 nM, a TGI [13] greater than 100 µM and a GI50 [14] of 1870 nM. For the same molecule, the TGI [14] was 7.69 µM, the GI50 [46] was 987 nM and the TGI [46] was 3.5 µM. The GI50 [47] was 533 nM, the TGI [47] was 12.3 µM and the GI50 [16] was 670 nM. It also gave a TGI [16] of 8.14 µM, a GI50 [17] of 2700 nM and a TGI [17] greater than 61.6 µM. It also gave a GI50 [18] of 1890 nM, a TGI [18] greater than 44 µM and a GI50 [48] of 2610 nM. For the same molecule, the TGI [48] was 11.8 µM, the GI50 [19] was 2880 nM and the TGI [19] was greater than 57.7 µM. It also gave a GI50 [20] of 2700 nM, a TGI [20] greater than 100 µM and a GI50 [21] of 2250 nM. It also gave a TGI [21] greater than 39.7 µM, a GI50 [22] of 2250 nM and a TGI [22] of 70.2 µM. For the same molecule, the GI50 [23] was 2970 nM, the TGI [23] was greater than 24.7 µM and the GI50 [24] was 1490 nM. For the same molecule, the TGI [24] was greater than 100 µM, the GI50 [25] was 2080 nM and the TGI [25] was 35.5 µM. It also gave a GI50 [59] of 1270 nM, a TGI [59] of 6.09 µM and a GI50 [26] of 1150 nM. The TGI [26] was 10.1 µM, the GI50 [27] was 1930 nM and the TGI [27] was greater than 25.6 µM. The GI50 [49] was 1230 nM, the TGI [49] was greater than 100 µM and the GI50 [50] was 471 nM. For the same molecule, the TGI [50] was greater than 19.9 µM, the GI50 [28] was 2340 nM and the TGI [28] was greater than 100 µM. The GI50 [51] was 1150 nM, the TGI [51] was 12.1 µM and the GI50 [52] was 354 nM. The TGI [52] was 2150 nM, the GI50 [29] was 3.26 µM and the TGI [29] was 48.7 µM. It also gave a GI50 [30] of 2040 nM, a TGI [30] greater than 71.1 µM and a GI50 [31] of 1680 nM. It also gave a TGI [31] of 58 µM, a GI50 [53] of 2860 nM and a TGI [53] of 8.68 µM. For the same molecule, the GI50 [54] was 3.37 µM, the TGI [54] was greater than 35.6 µM and the GI50 [32] was 3.3 µM. The TGI [32] was greater than 30.4 µM, the GI50 [33] was 2220 nM and the TGI [33] was greater than 100 µM. It also gave a GI50 [55] of 1120 nM, a TGI [55] greater than 22.1 µM and a GI50 [34] of 2450 nM. It also gave a TGI [34] of 8.44 µM, a GI50 [56] of 252 nM and a TGI [56] of 1.61 µM. It also gave a GI50 [35] of 3.97 µM, a TGI [35] greater than 41.4 µM and a GI50 [57] of 3.67 µM. It also gave a TGI [57] greater than 100 µM, a GI50 [36] of 1370 nM and a TGI [36] of 4.72 µM. For the same molecule, the GI50 [37] was 2080 nM, the TGI [37] was 7.08 µM and the GI50 [38] was 1410 nM. It also gave a TGI [38] greater than 44.1 µM, a GI50 [39] of 3.5 µM and a TGI [39] greater than 100 µM. It also gave a GI50 [40] of 708 nM and a TGI [40] greater than 43.6 µM.
